According to ChEMBL document CHEMBL1909046, “DrugMatrix in vitro pharmacology data”:

Assays:
[1] = target: T1, Cholecystokinin receptor type A (Homo sapiens, UniProt P32238); type: cell membranes, Membrane; conditions: 1321-n1; note: in other assays of this panel Not Active means under 50% inhibition at 10 µM
T1 sequence (P32238 whole entry): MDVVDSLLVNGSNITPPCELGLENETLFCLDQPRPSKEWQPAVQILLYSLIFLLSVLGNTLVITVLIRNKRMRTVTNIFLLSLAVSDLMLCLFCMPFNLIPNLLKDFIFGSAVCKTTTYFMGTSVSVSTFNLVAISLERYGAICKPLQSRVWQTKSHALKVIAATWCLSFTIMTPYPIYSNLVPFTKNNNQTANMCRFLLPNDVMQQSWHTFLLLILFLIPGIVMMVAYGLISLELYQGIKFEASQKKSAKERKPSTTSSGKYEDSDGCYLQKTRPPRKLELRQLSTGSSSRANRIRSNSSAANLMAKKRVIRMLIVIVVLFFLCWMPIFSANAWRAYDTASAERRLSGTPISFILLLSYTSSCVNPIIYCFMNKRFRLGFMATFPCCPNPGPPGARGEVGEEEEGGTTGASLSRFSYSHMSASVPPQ

Leukotriene C4 synthase = target: T2, Leukotriene C4 synthase (Cavia porcellus, UniProt A6XA80); type: tissue-based, Lung;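 note: enzyme inhibition assay of leukotriene C4 synthase, using LTA4 as the substrate; in other assays of this panel Not Active means under 50% inhibition at 10 µM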
T2 sequence (A6XA80 whole entry): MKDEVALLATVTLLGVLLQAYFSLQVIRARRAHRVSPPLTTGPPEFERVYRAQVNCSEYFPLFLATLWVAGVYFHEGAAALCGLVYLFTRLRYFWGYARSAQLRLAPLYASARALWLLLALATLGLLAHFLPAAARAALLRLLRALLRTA

[2] = DRUGMATRIX: Platelet-Derived Growth Factor (PDGF) radioligand binding (ligand: [125I] PDGF); type: cell-based; conditions: nih3t3; Not Active = under 50% inhibition at 10 µM
[3] = DRUGMATRIX: Potassium Channel [KATP] radioligand binding (ligand: [3H] Glyburide); type: cell membranes, Membrane; conditions: hit-t15; Not Active = under 50% inhibition at 10 µM
Cathepsin G = target: T3, Cathepsin G (Homo sapiens, UniProt P08311); type: tissue-based; conditions: neutrophil;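 note: inhibition of Cathepsin G enzyme activity, tested on an AMC-conjugated peptide substrate; in other assays of this panel Not Active means under 50% inhibition at 10 µM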
T3 sequence (P08311 whole entry): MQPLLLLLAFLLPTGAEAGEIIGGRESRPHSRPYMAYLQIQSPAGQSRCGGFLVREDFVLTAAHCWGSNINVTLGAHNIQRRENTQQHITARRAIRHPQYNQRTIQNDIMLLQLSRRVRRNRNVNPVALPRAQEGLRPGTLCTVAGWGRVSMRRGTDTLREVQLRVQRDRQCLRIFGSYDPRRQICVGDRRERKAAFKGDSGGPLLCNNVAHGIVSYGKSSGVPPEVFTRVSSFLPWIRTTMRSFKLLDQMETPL

[4] = target: Mitogen-activated protein kinase 3 (Homo sapiens, UniProt P27361); test: DRUGMATRIX: Protein Serine/Threonine Kinase, ERK1 enzyme inhibition (substrate: Myelin Basic Protein); design: species or system Escherichia coli; conditions: Not Active = under 50% inhibition at 10 µM
[5] = target: Mitogen-activated protein kinase 1 (Homo sapiens, UniProt P28482); test: DRUGMATRIX: Protein Serine/Threonine Kinase, ERK2 enzyme inhibition (substrate: Myelin Basic Protein); design: species or system Escherichia coli; conditions: Not Active = under 50% inhibition at 10 µM
Cytochrome P450 2C9 = Cytochrome P450 2C9 (Homo sapiens, UniProt P11712); conditions: bti-tn-5b1-4; note: in other assays of this panel Not Active means under 50% inhibition at 10 µM
Cytochrome P450 2E1 = Cytochrome P450 2E1 (Homo sapiens, UniProt P05181); conditions: bti-tn-5b1-4; note: in other assays of this panel Not Active means under 50% inhibition at 10 µM
Chain of Cytochrome P450 2E1 (P05181 whole entry): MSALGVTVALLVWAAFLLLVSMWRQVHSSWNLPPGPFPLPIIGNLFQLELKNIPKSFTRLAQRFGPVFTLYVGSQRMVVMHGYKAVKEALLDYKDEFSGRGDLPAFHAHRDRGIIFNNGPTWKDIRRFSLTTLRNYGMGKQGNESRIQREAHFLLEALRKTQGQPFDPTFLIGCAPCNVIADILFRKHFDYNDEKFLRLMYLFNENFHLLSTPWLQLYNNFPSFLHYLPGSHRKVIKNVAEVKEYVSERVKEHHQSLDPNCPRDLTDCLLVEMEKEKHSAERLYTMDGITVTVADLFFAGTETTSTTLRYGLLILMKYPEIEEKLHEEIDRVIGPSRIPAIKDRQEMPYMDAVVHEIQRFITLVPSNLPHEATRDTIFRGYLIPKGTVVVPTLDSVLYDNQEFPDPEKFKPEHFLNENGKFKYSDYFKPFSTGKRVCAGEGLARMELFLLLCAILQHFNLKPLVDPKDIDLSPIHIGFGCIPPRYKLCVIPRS

Chain of Mitogen-activated protein kinase 1 (P28482 whole entry): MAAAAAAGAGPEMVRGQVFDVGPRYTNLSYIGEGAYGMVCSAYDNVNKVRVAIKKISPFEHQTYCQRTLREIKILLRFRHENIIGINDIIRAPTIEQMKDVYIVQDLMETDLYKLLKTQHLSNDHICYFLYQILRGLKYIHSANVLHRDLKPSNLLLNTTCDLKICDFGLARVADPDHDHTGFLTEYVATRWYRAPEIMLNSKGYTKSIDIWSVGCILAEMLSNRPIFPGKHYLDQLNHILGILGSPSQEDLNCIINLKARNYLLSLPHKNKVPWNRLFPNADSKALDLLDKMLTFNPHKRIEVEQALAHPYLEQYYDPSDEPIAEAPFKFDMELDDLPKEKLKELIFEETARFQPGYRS
Chain of Cytochrome P450 2C9 (P11712 whole entry): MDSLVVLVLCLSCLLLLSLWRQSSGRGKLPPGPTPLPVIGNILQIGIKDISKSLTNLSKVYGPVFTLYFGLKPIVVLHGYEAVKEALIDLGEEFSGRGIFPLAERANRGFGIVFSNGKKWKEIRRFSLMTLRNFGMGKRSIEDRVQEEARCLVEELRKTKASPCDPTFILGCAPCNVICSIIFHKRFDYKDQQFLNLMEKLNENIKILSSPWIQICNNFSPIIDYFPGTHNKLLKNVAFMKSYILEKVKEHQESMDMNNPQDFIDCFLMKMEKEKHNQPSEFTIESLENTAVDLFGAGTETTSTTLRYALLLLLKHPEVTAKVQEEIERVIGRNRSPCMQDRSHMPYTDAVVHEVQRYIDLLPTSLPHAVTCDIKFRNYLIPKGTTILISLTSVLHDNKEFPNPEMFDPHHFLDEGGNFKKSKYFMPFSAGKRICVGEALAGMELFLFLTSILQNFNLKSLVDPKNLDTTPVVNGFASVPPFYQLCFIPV
Chain of Mitogen-activated protein kinase 3 (P27361 whole entry): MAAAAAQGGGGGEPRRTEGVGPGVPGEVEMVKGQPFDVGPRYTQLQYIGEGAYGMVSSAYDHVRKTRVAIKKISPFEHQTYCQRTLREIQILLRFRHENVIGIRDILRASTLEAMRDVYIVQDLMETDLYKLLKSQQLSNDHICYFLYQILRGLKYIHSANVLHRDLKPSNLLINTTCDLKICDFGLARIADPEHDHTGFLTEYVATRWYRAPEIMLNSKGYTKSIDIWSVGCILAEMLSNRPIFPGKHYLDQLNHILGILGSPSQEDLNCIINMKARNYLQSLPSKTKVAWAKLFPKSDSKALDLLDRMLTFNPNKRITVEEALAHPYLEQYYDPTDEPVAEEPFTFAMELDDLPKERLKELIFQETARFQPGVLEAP

| SMILES | IC50 [1] | IC50 (Leukotriene C4 synthase) | IC50 [2] | Ki [2] | IC50 [3] | Ki [3] | IC50 (Cathepsin G) | IC50 [4] | IC50 [5] | IC50 (Cytochrome P450 2C9) | Ki (Cytochrome P450 2C9) | IC50 (Cytochrome P450 2E1) | Ki (Cytochrome P450 2E1) | IC50 ([5]; read-out: IC50) [nM] |
| --- | --- | --- | --- | --- | --- | --- | --- | --- | --- | --- | --- | --- | --- | --- |
| CC(C)CN(C[C@@H](O)[C@H](Cc1ccccc1)NC(=O)O[C@H]1CCOC1)S(=O)(=O)c1ccc(N)cc1 | Not Active | Not Active | Not Active | Not Active | Not Active | Not Active | Not Active | Not Active | Not Active | Not Active | Not Active | Not Active | Not Active | – |
| c1ccc(Nc2ccc(Nc3ccccc3)cc2)cc1 | Not Active | Not Active | Not Active | Not Active | Not Active | Not Active | Not Active | Not Active | Not Active | Not Active | Not Active | Not Active | Not Active | – |
| COc1cc2c3cc1Oc1cc(ccc1O)C[C@@H]1c4c(cc(OC)c(O)c4Oc4ccc(cc4)C[C@@H]3N(C)CC2)CC[N+]1(C)C.[Cl-] | Not Active | Not Active | Not Active | Not Active | Not Active | Not Active | Not Active | Not Active | Not Active | Not Active | Not Active | Not Active | Not Active | – |
| NC(=O)N1c2ccccc2CCc2ccccc21 | Not Active | Not Active | Not Active | Not Active | Not Active | Not Active | Not Active | Not Active | Not Active | Not Active | Not Active | Not Active | Not Active | – |
| O=C1CC[C@@H](N2C(=O)c3ccccc3C2=O)C(=O)N1 | Not Active | Not Active | Not Active | Not Active | Not Active | Not Active | Not Active | Not Active | Not Active | Not Active | Not Active | Not Active | Not Active | – |
| Cc1onc(O)c1CC(N)C(=O)O (racemic) [(R,S)-AMPA] | Not Active | Not Active | Not Active | Not Active | Not Active | Not Active | Not Active | Not Active | Not Active | Not Active | Not Active | Not Active | Not Active | – |
| Cc1ccc2cc3c(ccc4ccccc43)c3c2c1CC3 [3-METHYLCHOLANTHRENE] | Not Active | Not Active | Not Active | Not Active | Not Active | Not Active | Not Active | Not Active | Not Active | Not Active | Not Active | Not Active | Not Active | – |
| CC[C@@]1(O)C[C@H](O[C@H]2C[C@H](N(C)C)[C@H](O[C@H]3C[C@H](O)[C@H](O[C@H]4CCC(=O)[C@H](C)O4)[C@H](C)O3)[C@H](C)O2)c2c(cc3c(c2O)C(=O)c2c(O)cccc2C3=O)[C@H]1C(=O)OC [ACLARUBICIN] | Not Active | Not Active | Not Active | Not Active | Not Active | Not Active | Not Active | Not Active | Not Active | Not Active | Not Active | Not Active | Not Active | – |
| CN(C)c1nc(N(C)C)nc(N(C)C)n1 [ALTRETAMINE] | Not Active | Not Active | Not Active | Not Active | Not Active | Not Active | Not Active | Not Active | Not Active | – | – | – | – | – |
| Nc1c(Br)cc(Br)cc1CN[C@H]1CC[C@H](O)CC1 [AMBROXOL] | Not Active | Not Active | Not Active | Not Active | Not Active | Not Active | Not Active | Not Active | Not Active | – | – | – | – | – |
| CN(C)CCCN1c2ccccc2Sc2ccc(Cl)cc21 [CHLORPROMAZINE] | Not Active | Not Active | Not Active | Not Active | Not Active | Not Active | Not Active | Not Active | Not Active | – | – | Not Active | Not Active | – |
| CC(C)(Oc1ccc(Cl)cc1)C(=O)O [CLOFIBRIC ACID] | Not Active | Not Active | Not Active | Not Active | Not Active | Not Active | Not Active | Not Active | Not Active | – | – | Not Active | Not Active | – |
| Cc1cc(C(C#N)c2ccc(Cl)cc2)c(Cl)cc1NC(=O)c1cc(I)cc(I)c1O (configuration not stated) [CLOSANTEL] | Not Active | Not Active | Not Active | Not Active | Not Active | Not Active | Not Active | Not Active | – | – | – | Not Active | Not Active | 1430 |
| Cc1onc(-c2ccccc2Cl)c1C(=O)N[C@@H]1C(=O)N2[C@@H]1SC(C)(C)[C@@H]2C(=O)O [CLOXACILLIN] | Not Active | Not Active | Not Active | Not Active | Not Active | Not Active | Not Active | Not Active | Not Active | – | – | Not Active | Not Active | – |
| O=c1oc2ccccc2c(O)c1Cc1c(O)c2ccccc2oc1=O [DICUMAROL] | Not Active | Not Active | Not Active | Not Active | Not Active | Not Active | Not Active | Not Active | – | – | – | Not Active | Not Active | 4430 |
| CC(C)[C@@]1(NC(=O)[C@@H]2C[C@@H]3c4cccc5[nH]cc(c45)C[C@H]3N(C)C2)O[C@@]2(O)[C@@H]3CCCN3C(=O)[C@H](Cc3ccccc3)N2C1=O.CS(=O)(=O)O [DIHYDROERGOCRISTINE MESYLATE] | Not Active | Not Active | Not Active | Not Active | Not Active | Not Active | Not Active | Not Active | Not Active | – | – | Not Active | Not Active | – |
| C[C@]12CC[C@@H]3c4ccc(O)cc4CC[C@H]3[C@@H]1CCC2=O [ESTRONE] | Not Active | Not Active | Not Active | Not Active | Not Active | Not Active | Not Active | Not Active | Not Active | – | – | – | – | – |
| N=C(N)NCCN1CCCCCCC1 [GUANETHIDINE] | Not Active | Not Active | Not Active | Not Active | Not Active | Not Active | Not Active | Not Active | Not Active | – | – | – | – | – |
| CCCCc1nc(Cl)c(CO)n1Cc1ccc(-c2ccccc2-c2nnn[nH]2)cc1 [LOSARTAN] | Not Active | Not Active | Not Active | Not Active | Not Active | Not Active | Not Active | Not Active | Not Active | – | – | Not Active | Not Active | – |
| CC1(C)S[C@@H]2[C@H](NC(=O)Cc3ccccc3)C(=O)N2[C@H]1C(=O)O [PENICILLIN G] | Not Active | Not Active | Not Active | Not Active | Not Active | Not Active | Not Active | Not Active | Not Active | – | – | – | – | – |
| CN(C)CCCN1c2ccccc2Sc2ccccc21 [PROMAZINE] | Not Active | Not Active | Not Active | Not Active | Not Active | Not Active | Not Active | Not Active | Not Active | – | – | Not Active | Not Active | – |
